Source: patent publication US12685312B2, “Sulfonamide apyrase inhibitors” (Texas Crop Science, Inc., priority 2022, dated 2026)

Test system: apyrase
Assay: Screen for apyrase inhibitors (Method 1, in vitro phosphate-release absorbance assay)
Type: biochemical
Conditions: inhibitor conc at 1 mM stock, 1 hr room temperature, absorbance 630 nm; rounded average of two assay results
Description: Apyrase inhibitors useful as enhancers of pesticidal activity are assessed using an in vitro assay. The method of Windsor, Bio Techniques 33:1024-1030 (November 2002) was used as follows Screen for Apyrase Inhibitors- 96 well plates were used for the assay: (Greiner bio-one: REF-655901-96 well, PS, F-bottom, Clear, Non-binding) Buffers: • Reaction Buffer: 60 mM Hepes; 3 mM MgCl2, 3 mM CaCl2 and 3 mM ATP (pH 6.5) • Development Buffer A: 2% aqueous ammonium molybdate • Development Buffer B: 11% ascorbic acid in 37.5% TCA in water • Stop buffer C: 2% trisodium citrate in 2% acetic acid solution in water • Add 100 μl of reaction buffer to each well. • Add 10 μl of DMSO (control) or inhibitor/compound or compounds such as […] or orthovanadate to each well. […] A blank cell indicates either <10% observed inhibition or a large difference between repetitions. In certain examples, the lack of observed inhibition is due to a lack of solubility of the compound under assay conditions, rather than a lack of apyrase inhibitory activity.

Row | SMILES | % Inhibition of Apyrase
1 | O=C(Nc1ccc(OC(F)F)cc1)c1ccccc1S(=O)(=O)Nc1cccc(C(F)(F)F)c1 [I-1, N-(4-(difluoromethoxy)phenyl)-2-(N-(3-(trifluoromethyl)phenyl)sulfamoyl)benzamide] | 84%
2 | O=C(Nc1cccc([N+](=O)[O-])c1)c1cccc(S(=O)(=O)Nc2cc(C(F)(F)F)ccc2Cl)c1 [I-3, 3-(N-(2-chloro-5-(trifluoromethyl)phenyl)sulfamoyl)-N-(3-nitrophenyl)benzamide] | 73%
3 | O=C(Nc1ccc(F)c([N+](=O)[O-])c1)c1ccc(S(=O)(=O)Nc2ccc(Cl)cc2)cc1 [I-4, 4-(N-(4-chlorophenyl)sulfamoyl)-N-(4-fluoro-3-nitrophenyl)benzamide] | 73%
4 | Cc1ccc(NS(=O)(=O)c2cc(C(=O)Nc3cccc([N+](=O)[O-])c3)ccc2C)cc1C [I-5, 3-(N-(3,4-dimethylphenyl)sulfamoyl)-4-methyl-N-(3-nitrophenyl)benzamide] | 71%
5 | Cc1ccc(C(=O)Nc2ccc([N+](=O)[O-])cc2)cc1S(=O)(=O)Nc1ccc(Br)cc1 [I-6, 3-(N-(4-bromophenyl)sulfamoyl)-4-methyl-N-(4-nitrophenyl)benzamide] | 69%
6 | Cc1cccc(NC(=O)c2cccc(NS(=O)(=O)c3ccc(Cl)cc3)c2)c1 [I-7, 3-((4-chlorophenyl)sulfonamido)-N-(m-tolyl)benzamide] | 67%
7 | CC1CCc2c(sc(NC(=O)c3cccc(S(=O)(=O)Nc4ccc(Br)cc4)c3)c2C#N)C1 (stereo not shown) [I-9, 3-(N-(4-bromophenyl)sulfamoyl)-N-(3-cyano-6-methyl-4,5,6,7-tetrahydrobenzo[b]thiophen-2-yl)benzamide] | 61%
8 | Cc1c(NC(=O)c2cccc(S(=O)(=O)Nc3ccc4c(c3)OCO4)c2)cccc1[N+](=O)[O-] [I-10, 3-(N-(benzo[d][1,3]dioxol-5-yl)sulfamoyl)-N-(2-methyl-3-nitrophenyl)benzamide] | 60%
9 | O=C(Nc1cccc([N+](=O)[O-])c1)c1cc(S(=O)(=O)Nc2cccc(F)c2)ccc1Cl [I-11, 2-chloro-5-(N-(3-fluorophenyl)sulfamoyl)-N-(3-nitrophenyl)benzamide] | 60%
10 | Cn1cc(O)nc1NC(=O)c1cccc(S(=O)(=O)Nc2ccc(Br)cc2)c1 [I-12, 3-(N-(4-bromophenyl)sulfamoyl)-N-(4-hydroxy-1-methyl-1H-imidazol-2-yl)benzamide] | 59%
11 | O=C(c1cccc(S(=O)(=O)Nc2ccc(Br)cc2)c1)N1CCc2ccccc21 [I-13, N-(4-bromophenyl)-3-(indoline-1-carbonyl)benzenesulfonamide] | 59%
12 | Cc1ccc(S(=O)(=O)Nc2cccc(C(=O)Nc3cccc(C)c3)c2)cc1 [I-14, 3-((4-methylphenyl)sulfonamido)-N-(m-tolyl)benzamide] | 59%
13 | COc1ccc(C(=O)Nc2cccc(Cl)c2)cc1S(=O)(=O)Nc1ccc(Br)cc1 [I-15, 3-(N-(4-bromophenyl)sulfamoyl)-N-(3-chlorophenyl)-4-methoxybenzamide] | 55%
14 | NC(=O)OCCNC(=O)c1cccc(S(=O)(=O)Nc2ccc(Br)cc2)c1 [I-17, 2-(3-(N-(4-bromophenyl)sulfamoyl)benzamido)ethyl carbamate] | 52%
15 | O=C(Nc1cccc([N+](=O)[O-])c1)c1ccc(Br)c(S(=O)(=O)Nc2ccc(F)cc2)c1 [I-19, 4-bromo-3-(N-(4-fluorophenyl)sulfamoyl)-N-(3-nitrophenyl)benzamide] | 50%
16 | O=C(Nc1ccc(Br)cc1)c1cccc(S(=O)(=O)Nc2ccc(Br)cc2)c1 [I-20, N-(4-bromophenyl)-3-(N-(4-bromophenyl)sulfamoyl)benzamide] | 45%
17 | O=C(Nc1cccc([N+](=O)[O-])c1)c1cccc(S(=O)(=O)Nc2ccc(Cl)cc2)c1 [I-21, 3-(N-(4-chlorophenyl)sulfamoyl)-N-(3-nitrophenyl)benzamide] | 45%
18 | O=C(Nc1cccc([N+](=O)[O-])c1)c1ccc(Br)c(S(=O)(=O)Nc2ccc(Br)cc2)c1 [I-22, 4-bromo-3-(N-(4-bromophenyl)sulfamoyl)-N-(3-nitrophenyl)benzamide] | 38%
19 | O=C(Nc1cccc([N+](=O)[O-])c1)c1ccc(Br)c(S(=O)(=O)Nc2cccc(F)c2)c1 [I-23, 4-bromo-3-(N-(3-fluorophenyl)sulfamoyl)-N-(3-nitrophenyl)benzamide] | 30%
20 | O=C(Nc1ccc(Br)cc1)c1cccc(S(=O)(=O)Nc2cccc([N+](=O)[O-])c2)c1 [I-24, N-(4-bromophenyl)-3-(N-(3-nitrophenyl)sulfamoyl)benzamide] | 29%
21 | Cc1ccc([N+](=O)[O-])cc1NC(=O)c1ccc(Cl)c(S(=O)(=O)Nc2cccc(C)c2C)c1 [I-25, 4-chloro-3-(N-(2,3-dimethylphenyl)sulfamoyl)-N-(2-methyl-5-nitrophenyl)benzamide] | 28%
22 | COc1ccc(C(=O)Nc2ccc(F)c(F)c2)cc1S(=O)(=O)Nc1ccc(Br)cc1 [I-26, 3-(N-(4-bromophenyl)sulfamoyl)-N-(3,4-difluorophenyl)-4-methoxybenzamide] | 28%
23 | COc1ccc(NS(=O)(=O)c2cccc(NC(=O)c3cccc(-n4cccc4)c3)c2)cc1 [I-27, N-(3-(N-(4-methoxyphenyl)sulfamoyl)phenyl)-3-(1H-pyrrol-1-yl)benzamide] | 24%
24 | COc1ccc([N+](=O)[O-])cc1NC(=O)c1ccc(C)c(S(=O)(=O)Nc2ccccc2)c1 [I-28, N-(2-methoxy-5-nitrophenyl)-4-methyl-3-(N-phenylsulfamoyl)benzamide] | 23%
25 | CC(=O)c1cccc(NS(=O)(=O)c2cc(C(=O)Nc3cccc([N+](=O)[O-])c3)ccc2C)c1 [I-29, 3-(N-(3-acetylphenyl)sulfamoyl)-4-methyl-N-(3-nitrophenyl)benzamide] | 22%
26 | O=C(Nc1cccc([N+](=O)[O-])c1)c1cccc(S(=O)(=O)Nc2cccc([N+](=O)[O-])c2)c1 [I-32, N-(3-nitrophenyl)-3-(N-(3-nitrophenyl)sulfamoyl)benzamide] | 21%

Continued, values first:

Row | % Inhibition of Apyrase | SMILES
27 | 21% | O=C(Nc1cccnc1)c1cccc(S(=O)(=O)Nc2cccc(C(F)(F)F)c2)c1 [I-30, N-(pyridin-3-yl)-3-(N-(3-(trifluoromethyl)phenyl)sulfamoyl)benzamide]
28 | 21% | O=C(Nc1cccc([N+](=O)[O-])c1)c1cccc(S(=O)(=O)Nc2ccc(F)cc2)c1 [I-31, 3-(N-(4-fluorophenyl)sulfamoyl)-N-(3-nitrophenyl)benzamide]
29 | 19% | COc1ccc(C(=O)Nc2ccc(Cl)cc2)cc1S(=O)(=O)Nc1ccc(Br)cc1 [I-33, 3-(N-(4-bromophenyl)sulfamoyl)-N-(4-chlorophenyl)-4-methoxybenzamide]
30 | 18% | O=C(Nc1cccc([N+](=O)[O-])c1)c1ccc(Br)c(S(=O)(=O)Nc2ccccc2)c1 [I-34, 4-bromo-N-(3-nitrophenyl)-3-(N-phenylsulfamoyl)benzamide]
31 | 17% | Cc1ccc(C(=O)Nc2cccc(C(=O)O)c2)cc1S(=O)(=O)Nc1ccc(Br)cc1 [I-35, 3-(3-(N-(4-bromophenyl)sulfamoyl)-4-methylbenzamido)benzoic acid]
32 | 16% | Cc1ccccc1NC(=O)c1cc(S(=O)(=O)Nc2ccc(Br)cc2)ccc1Cl [I-36, 5-(N-(4-bromophenyl)sulfamoyl)-2-chloro-N-(o-tolyl)benzamide]
33 | 14% | O=C(Nc1cccc([N+](=O)[O-])c1)c1cccc(S(=O)(=O)N2CCc3ccccc32)c1 [I-38, 3-(indolin-1-ylsulfonyl)-N-(3-nitrophenyl)benzamide]
34 | 14% | Cc1c(NC(=O)c2ccc(Cl)c(S(=O)(=O)Nc3ccccc3)c2)cccc1[N+](=O)[O-] [I-39, 4-chloro-N-(2-methyl-3-nitrophenyl)-3-(N-phenylsulfamoyl)benzamide]
35 | 14% | Cc1ccccc1NS(=O)(=O)c1cccc(C(=O)Nc2cccc([N+](=O)[O-])c2)c1 [I-40, N-(3-nitrophenyl)-3-(N-(o-tolyl)sulfamoyl)benzamide]
36 | 13% | COc1ccc([N+](=O)[O-])cc1NC(=O)c1cccc(S(=O)(=O)Nc2ccc(Cl)cc2)c1 [I-41, 3-(N-(4-chlorophenyl)sulfamoyl)-N-(2-methoxy-5-nitrophenyl)benzamide]
37 | 13% | O=C(NCCC1CCCO1)c1cccc(S(=O)(=O)Nc2ccc(Br)cc2)c1 (stereo not shown) [I-42, 3-(N-(4-bromophenyl)sulfamoyl)-N-(2-(tetrahydrofuran-2-yl)ethyl)benzamide]
38 | 13% | O=C(Nc1ccccc1)c1ccc(Cl)c(S(=O)(=O)Nc2ccc(Br)cc2)c1 [I-43, 3-(N-(4-bromophenyl)sulfamoyl)-4-chloro-N-phenylbenzamide]
39 | 13% | O=C(Nc1ccccc1[N+](=O)[O-])c1cc(S(=O)(=O)Nc2ccc(Br)cc2)ccc1Cl [I-44, 5-(N-(4-bromophenyl)sulfamoyl)-2-chloro-N-(2-nitrophenyl)benzamide]
40 | 13% | Cc1ccc(C(=O)Nc2cccc([N+](=O)[O-])c2)cc1S(=O)(=O)Nc1ccc(C(=O)O)cc1 [I-45, 4-((2-methyl-5-((3-nitrophenyl)carbamoyl)phenyl)sulfonamido) benzoic acid]
